Results reported in patent US6576593B2, “Synergistic herbicidal compositions comprising herbicides from the benzoylcyclohexanedione group for use in maize corps” (Aventis CropScience GmbH, priority 2001, dated 2003).

How the values were obtained:
[1] = tested on: Avena fatua (AVENA); assay: Herbicidal activity of A5, herbicides (B) and their combinations, visual scoring, against AVEFA; type: in vivo
Description: (§1) The herbicidal efficacy of the active ingredients or active ingredient mixtures was scored visually by comparing the treated plots with untreated control plots. The damage and development of all aerial plant parts was recorded. […] The score figures of in each case 4 plots were averaged. Maize plants were grown in the open on plots of from 5 to 10 m^2 in size on different soils and under various climatic conditions, the natural presence of harmful plants or seeds thereof in the soil being exploited for the experiments. […] The active ingredient or active ingredient combinations were applied post-emergence as WG, WP or EC formulations. After 2 to 8 weeks, the plants were scored visually in comparison with an untreated comparison group. […] Moreover, the herbicidal activities of the compositions according to the invention exceed the expected values calculated using Colby's formula. In contrast, the maize plants were left unharmed or virtually unharmed as a consequence of the treatment. When applying the combinations according to the invention, herbicidal effects are frequently observed on a harmful plant species which exceed the formal total of the effects of the herbicides present when these are applied by themselves. Alternatively, it is observed in some cases that a lower application rate is required for the herbicide combination in order to achieve the same effect on a harmful plant species in comparison with the individual products. […] The biological examples listed in the tables hereinbelow relate to the herbicidal activity of combinations according to the invention of the following herbicides against the harmful plants Ipomea laputifolia (IPOMEA) and Avena fatua (AVENA): […]

[2] = tested on: Ipomea laputifolia (IPOMEA); assay: Herbicidal activity of A5, herbicides (B) and their combinations, visual scoring, against IPOMEA; type: in vivo
Description: as §1

CC(C)N(C(=O)COc1nnc(C(F)(F)F)s1)c1ccc(F)cc1 [Compound B1.4, flufenacet]
pest or weed control at 373 g/ha ([1]; Avena fatua, Dosage 373 g ai/ha, read-out: Activity against AVEFA found): 50%
pest or weed control at 373 g/ha ([2]; Dosage 373 g ai/ha, read-out: Activity against IPOMEA found): 25%

CCc1cccc(C)c1N(C(=O)CCl)C(C)COC (stereo not drawn) [Compound B1.5, metolachlor]
pest or weed control at 960 g/ha ([1]; Avena fatua, Dosage 960 g ai/ha, read-out: Activity against AVEFA found): 20%
pest or weed control at 960 g/ha ([2]; Dosage 960 g ai/ha, read-out: Activity against IPOMEA found): 13%

CCNc1nc(Cl)nc(NC(C)C)n1 [Compound B2.1, atrazine]
pest or weed control at 540 g/ha ([1]; Avena fatua, Dosage 540 g ai/ha, read-out: Activity against AVEFA found): 50%
pest or weed control at 540 g/ha ([2]; Dosage 540 g ai/ha, read-out: Activity against IPOMEA found): 25%

N#Cc1cc(Br)c(O)c(Br)c1 [Compound B2.2, bromoxynil]
pest or weed control at 140 g/ha ([1]; Avena fatua, Dosage 140 g ai/ha, read-out: Activity against AVEFA found): 20%
pest or weed control at 140 g/ha ([2]; Dosage 140 g ai/ha, read-out: Activity against IPOMEA found): 25%

COc1c(Cl)ccc(Cl)c1C(=O)O [Compound B4.1, dicamba]
pest or weed control at 80 g/ha ([1]; Avena fatua, Dosage 80 g ai/ha, read-out: Activity against AVEFA found): 10%
pest or weed control at 80 g/ha ([2]; Dosage 80 g ai/ha, read-out: Activity against IPOMEA found): 25%

CCc1cnc(C2=NC(C)(C(C)C)C(=O)N2)c(C(=O)O)c1 (stereo not drawn) [Compound B5.6, imazethapyr]
pest or weed control at 30 g/ha ([1]; Avena fatua, Dosage 30 g ai/ha, read-out: Activity against AVEFA found): 10%
pest or weed control at 30 g/ha ([2]; Dosage 30 g ai/ha, read-out: Activity against IPOMEA found): 25%

COC(=O)c1ccc(I)cc1S(=O)(=O)[N-]C(=O)Nc1nc(C)nc(OC)n1.[Na+] [Compound B5.7, iodosulfuron-methyl-sodium]
Activity against AVEFA found ([1]; Dosage 1 g ai/ha): 30%
Activity against IPOMEA found ([2]; Dosage 1 g ai/ha): 20%

COc1cc(OC)nc(NC(=O)NS(=O)(=O)c2ncccc2C(=O)N(C)C)n1 [Compound B5.9, nicosulfuron]
pest or weed control at 15 g/ha ([1]; Avena fatua, Dosage 15 g ai/ha, read-out: Activity against AVEFA found): 40%
pest or weed control at 15 g/ha ([2]; Dosage 15 g ai/ha, read-out: Activity against IPOMEA found): 20%

CCC(CC)Nc1c([N+](=O)[O-])cc(C)c(C)c1[N+](=O)[O-] [Compound B7.1, pendimethalin]
pest or weed control at 840 g/ha ([1]; Avena fatua, Dosage 840 g ai/ha, read-out: Activity against AVEFA found): 10%
pest or weed control at 840 g/ha ([2]; Dosage 840 g ai/ha, read-out: Activity against IPOMEA found): 40%
